Laboratory results from patent US9062056B2, “Aza-benzimidazolone Chymase inhibitors” (Boehringer Ingelheim International GmbH, priority 2008, dated 2015).
pIC50: −log10 of the molar value.

target: T1, Chymase (Homo sapiens, UniProt P23946); assay: In vitro assay for inhibition of Chymase (rhodamine 110 peptide substrate, fluorescence); assay type: biochemical; conditions: 500 pM chymase, 100 nM substrate, 100 μM TCEP, 1% DMSO, 28° C., 1 hour
T1 sequence (P23946 22-247): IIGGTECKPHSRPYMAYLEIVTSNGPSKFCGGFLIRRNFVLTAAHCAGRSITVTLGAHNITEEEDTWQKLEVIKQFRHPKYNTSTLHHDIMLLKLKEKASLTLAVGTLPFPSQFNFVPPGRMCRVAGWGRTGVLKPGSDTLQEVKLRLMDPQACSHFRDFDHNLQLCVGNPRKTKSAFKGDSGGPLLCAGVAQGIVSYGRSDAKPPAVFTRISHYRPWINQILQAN
Method: IN VITRO ASSAY FOR INHIBITION OF CHYMASE
Chymase assays were performed in a total volume of 15 μL in Corning black opaque 384-well microtiter plates with a non-binding surface (Corning, N.Y.). The assay buffer was comprised of 20 mM Tris HCl pH 8.0, 50 mM NaCl, 0.01% CHAPS. The test compounds were serially diluted 3-fold with neat DMSO in a 96-well polypropylene plate from a 10 mM DMSO stock to give the 10 point dose response curve. 3 μL of the resulting DMSO solution were transferred to a 384-well polypropylene plate in duplicate, and 37 μL of assay buffer was added. Chymase was added to the assay plate in 3 uL of assay buffer followed by 2 uL of the appropriate compound dilution using a PlateMate Plus (Matrix Technologies Corp., Hudson, N.H.). The reaction was initiated by the addition of 10 uL rhodamine 110, bis-(succinoyl-L-alanyl-L-alanyl-L-prolyl-L-phenylalanylamide) (American Peptides, Sunnyvale, Calif.) in assay buffer containing 150 μM tris(2-carboxyethyl)phosphine (TCEP, Pierce Chemical, Rockford, Ill.) using a Multidrop (Thermo Electron Corp., Waltham, Mass.). Final assay concentrations were 500 pM chymase, 100 nM substrate, 100 μM TCEP, and 1% DMSO. The plates were incubated at 28° C. and 80% humidity for 1 hour, at which time the fluorescence was read on a Viewlux 1430 Microplate Imager (Perkin Elmer Life Sciences, Boston, Mass.) with 485 nm excitation, 530 nm emission, and a fluorescein dichroic mirror. The percentage of control values were calculated relative to assay blanks containing complete reaction minus chymase and a 100% control containing assay buffer with 1% DMSO in place of compound. IC50 values were obtained by fitting the data using XLFit4 (IDBS Software).

Row | pIC50 | Compound
1 | 8.66 | Cc1cccc2c1c(Cn1c(=O)n([C@H](CC(=O)O)c3ccccc3)c3ncccc31)cn2C [(R)-3-[1-(1,4-Dimethyl-1H-indol-3-ylmethyl)-2-oxo-1,2-dihydro-imidazo[4,5-b]pyridin-3-yl]-3-phenyl-propionic acid]
2 | 8.37 | Cc1cc(C)c2c(Cn3c(=O)n([C@H](CC(=O)O)c4ccccc4)c4ncccc43)nsc2c1 [(R)-3-[1-(4,6-Dimethyl-benzo[d]isothiazol-3-ylmethyl)-2-oxo-1,2-dihydro-imidazo[4,5-b]pyridin-3-yl]-3-phenyl-propionic acid]
3 | 9.21 | Cc1cc(C)c2c(Cn3c(=O)n([C@H](CC(=O)O)c4ccccc4)c4ncccc43)cn(C)c2c1 [(R)-3-[2-Oxo-1-(1,4,6-trimethyl-1H-indol-3-ylmethyl)-1,2-dihydro-imidazo[4,5-b]pyridin-3-yl]-3-phenyl-propionic acid]
4 | 8.60 | Cc1ccc2c(n1)n([C@H](CC(=O)O)c1ccccc1)c(=O)n2Cc1cn(C)c2cccc(C)c12 [(R)-3-[1-(1,4-Dimethyl-1H-indol-3-ylmethyl)-5-methyl-2-oxo-1,2-dihydro-imidazo[4,5-b]pyridin-3-yl]-3-phenyl-propionic acid]
5 | 9.22 | COc1ccc2c(n1)n([C@H](CC(=O)O)c1ccccc1)c(=O)n2Cc1cn(C)c2cc(C)cc(C)c12 [(R)-3-[5-Methoxy-2-oxo-1-(1,4,6-trimethyl-1H-indol-3-ylmethyl)-1,2-dihydro-imidazo[4,5-b]pyridin-3-yl]-3-phenyl-propionic acid]
6 | 8.40 | Cc1cc(C)c2c(Cn3c(=O)n([C@H](CC(=O)O)c4ccccc4)c4cc(C)ncc43)nsc2c1 [(R)-3-[3-(4,6-Dimethyl-1,2-benzisothiazol-3-ylmethyl)-6-methyl-2-oxo-2,3-dihydro-imidazo[4,5-c]pyridin-1-yl]-3-phenyl-propionic acid]
7 | 8.82 | Cc1cccc2c1c(Cn1c(=O)n([C@H](CC(=O)O)c3ccccc3)c3nc(C#N)ccc31)cn2C [(R)-3-[5-Cyano-1-(1,4-dimethyl-1H-indol-3-ylmethyl)-2-oxo-1,2-dihydro-imidazo[4,5-b]pyridin-3-yl]-3-phenyl-propionic acid]
8 | 8.47 | CCC[C@@H](CC(=O)O)n1c(=O)n(Cc2nsc3cc(C)cc(C)c23)c2ccc(C)nc21 [(S)-3-[1-(4,6-Dimethyl-1,2-benzisothiazol-3-ylmethyl)-5-methyl-2-oxo-1,2-dihydro-imidazo[4,5-b]pyridin-3-yl]-hexanoic acid]
9 | 8.58 | Cc1cc2c(cn1)n(Cc1cn(C)c3cccc(C)c13)c(=O)n2[C@H](CC(=O)O)c1ccccc1 [(R)-3-[3-(1,4-Dimethyl-1H-indol-3-ylmethyl)-6-methyl-2-oxo-2,3-dihydro-imidazo[4,5-c]pyridin-1-yl]-3-phenyl-propionic acid]
10 | 8.69 | COc1ccc2c(n1)n([C@H](CC(=O)O)c1ccccc1)c(=O)n2Cc1cn(C)c2cccc(C)c12 [(R)-3-[1-(1,4-Dimethyl-1H-indol-3-ylmethyl)-5-methoxy-2-oxo-1,2-dihydro-imidazo[4,5-b]pyridin-3-yl]-3-phenyl-propionic acid]
11 | 7.95 | Cc1cc(C)c2c(Cn3c(=O)n([C@H](CC(=O)O)c4ccccc4)c4ccncc43)nsc2c1 [(R)-3-[3-(4,6-Dimethyl-benzo[d]isothiazol-3-ylmethyl)-2-oxo-2,3-dihydro-imidazo[4,5-c]pyridin-1-yl]-3-phenyl-propionic acid]
12 | 7.90 | Cc1cccc2c1c(Cn1c(=O)n([C@H](CC(=O)O)c3ccccc3)c3nc(C(C)C)ncc31)cn2C [(R)-3-[7-(1,4-Dimethyl-1H-indol-3-ylmethyl)-2-isopropyl-8-oxo-7,8-dihydro-purin-9-yl]-3-phenyl-propionic acid]
13 | 8.30 | Cc1cccc2c1c(Cn1c(=O)n([C@H](CC(=O)O)c3ccccc3)c3nc(C4CC4)ncc31)cn2C [(R)-3-[2-Cyclopropyl-7-(1,4-dimethyl-1H-indol-3-ylmethyl)-8-oxo-7,8-dihydro-purin-9-yl]-3-phenyl-propionic acid]
14 | 9.22 | Cc1cc(C)c2c(Cn3c(=O)n([C@H](CC(=O)O)c4ccccc4)c4nc(C#N)ccc43)cn(C)c2c1 [(R)-3-[5-Cyano-2-oxo-1-(1,4,6-trimethyl-1H-indol-3-ylmethyl)-1,2-dihydro-imidazo[4,5-b]pyridin-3-yl]-3-phenyl-propionic acid]

Second part, the compound before the results:

Row | Compound | pIC50
15 | CCC[C@@H](CC(=O)O)n1c(=O)n(Cc2cn(C)c3cccc(C)c23)c2cc(C)cnc21 [(S)-3-[1-(1,4-Dimethyl-1H-indol-3-ylmethyl)-6-methyl-2-oxo-1,2-dihydro-imidazo[4,5-b]pyridin-3-yl]-hexanoic acid] | 8.46
16 | Cc1cccc2c1c(Cn1c(=O)n([C@H](CC(=O)O)c3ccc(Cl)cc3)c3nc(C#N)ccc31)cn2C [(R)-3-(4-Chloro-phenyl)-3-[5-cyano-1-(1,4-dimethyl-1H-indol-3-ylmethyl)-2-oxo-1,2-dihydro-imidazo[4,5-b]pyridin-3-yl]-propionic acid] | 9.78
17 | Cc1ccc2c(n1)n([C@H](CC(=O)O)c1cccnc1)c(=O)n2Cc1cn(C)c2cccc(C)c12 [(R)-3-[1-(1,4-Dimethyl-1H-indol-3-ylmethyl)-5-methyl-2-oxo-1,2-dihydro-imidazo[4,5-b]pyridin-3-yl]-3-pyridin-3-yl-propionic acid] | 7.97
18 | CCC[C@@H](CC(=O)NS(=O)(=O)c1cn(C)cn1)n1c(=O)n(Cc2cn(C)c3cccc(C)c23)c2cccnc21 [1-Methyl-1H-imidazole-4-sulfonic acid {(S)-3-[1-(1,4-dimethyl-1H-indol-3-ylmethyl)-2-oxo-1,2-dihydro-imidazo[4,5-b]pyridin-3-yl]-hexanoyl}-amide] | 8.17
19 | Cc1cc(C)c2c(Cn3c(=O)n([C@H](CC(=O)O)c4ccc(Cl)cc4)c4nc(C)ccc43)cn(C)c2c1 [(R)-3-(4-Chloro-phenyl)-3-[5-methyl-2-oxo-1-(1,4,6-trimethyl-1H-indol-3-ylmethyl)-1,2-dihydro-imidazo[4,5-b]pyridin-3-yl]-propionic acid] | 9.70
20 | CCC[C@@H](CC(=O)O)n1c(=O)n(Cc2cn(C)c3cccc(C)c23)c2ncccc21 [(S)-3-[3-(1,4-Dimethyl-1H-indol-3-ylmethyl)-2-oxo-2,3-dihydro-imidazo[4,5-b]pyridin-1-yl]-hexanoic acid] | 8.05
21 | CCC[C@@H](CC(=O)NS(=O)(=O)CC)n1c(=O)n(Cc2cn(C)c3cccc(C)c23)c2cccnc21 [Ethanesulfonic acid {(S)-3-[1-(1,4-dimethyl-1H-indol-3-ylmethyl)-2-oxo-1,2-dihydro-imidazo[4,5-b]pyridin-3-yl]-hexanoyl}-amide] | 8.13
22 | CCCC(CC(=O)O)n1c(=O)n(Cc2cn(C)c3cc(C)cc(C)c23)c2ccc(C#N)nc21 (stereo not shown) [3-[5-Cyano-2-oxo-1-(1,4,6-trimethyl-1H-indol-3-ylmethyl)-1,2-dihydro-imidazo[4,5-b]pyridin-3-yl]-hexanoic acid] | 8.97
23 | CCC[C@@H](CC(=O)O)n1c(=O)n(Cc2cn(C)c3cccc(C)c23)c2cnccc21 [(S)-3-[3-(1,4-Dimethyl-1H-indol-3-ylmethyl)-2-oxo-2,3-dihydro-imidazo[4,5-c]pyridin-1-yl]-hexanoic acid] | 7.72
24 | Cc1ccc2c(n1)n([C@H](CC(=O)O)c1cccc(Cl)c1)c(=O)n2Cc1cn(C)c2cccc(C)c12 [(R)-3-(3-Chloro-phenyl)-3-[1-(1,4-dimethyl-1H-indol-3-ylmethyl)-5-methyl-2-oxo-1,2-dihydro-imidazo[4,5-b]pyridin-3-yl]-propionic acid] | 8.15
25 | CCCC(CC(=O)O)n1c(=O)n(Cc2cn(C)c3cc(C)cc(C)c23)c2ccc(C(N)=O)nc21 (stereo not shown) [3-[5-Carbamoyl-2-oxo-1-(1,4,6-trimethyl-1H-indol-3-ylmethyl)-1,2-dihydro-imidazo[4,5-b]pyridin-3-yl]-hexanoic acid] | 8.71
26 | Cc1cc(C)c2c(Cn3c(=O)n([C@H](CC(=O)O)c4ccc(F)cc4)c4nc(C#N)ccc43)cn(C)c2c1 [(R)-3-[5-Cyano-2-oxo-1-(1,4,6-trimethyl-1H-indol-3-ylmethyl)-1,2-dihydro-imidazo[4,5-b]pyridin-3-yl]-3-(4-fluoro-phenyl)-propionic acid] | 9.64
27 | CCC[C@@H](CC(=O)O)n1c(=O)n(Cc2cn(C)c3cc(C)cc(C)c23)c2ccc(C)nc21 [(S)-3-[5-Methyl-2-oxo-1-(1,4,6-trimethyl-1H-indol-3-ylmethyl)-1,2-dihydro-imidazo[4,5-b]pyridin-3-yl]-hexanoic acid] | 9.09
28 | Cc1cc(C)c2c(Cn3c(=O)n(CC4(C(=O)O)CCCCC4)c4nc(C)ccc43)nsc2c1 [1-[1-(4,6-Dimethyl-1,2-benzisothiazol-3-ylmethyl)-5-methyl-2-oxo-1,2-dihydro-imidazo[4,5-b]pyridin-3-ylmethyl]-cyclohexanecarboxylic acid] | 8.84
